Measurements from publication PMC12645191, “Dicarboxylate and dicarboxylic acid appended supramolecular self-associating amphiphiles as antimicrobial agents against high priority bacterial pathogens” (Organic & Biomolecular Chemistry, 2025).
In brackets after ≈: the same amount, converted by molar mass. Several values for one entry are separate records, joined by “and”; a condition that tells them apart may be missing. Identical values can stand only once. One block for each molecule: values may come before it.

Experiments:
[1] = system: K. pneumoniae M6; test: inhibition of bacterial growth, OD600 after 20 h; format: cell-based, Klebsiella pneumoniae; conditions: SSA 5.0 mM, 2.5% ethanol, negative = enhanced growth
Procedure: (§1) With the self-associative properties of 1–10 established, the antimicrobial activity of these SSAs were determined against a panel of clinically relevant, high-priority pathogens including: P. aeruginosa PAO1; Klebsiella pneumonia (K. pneumoniae) M6; E. coli NCTC 12923; Acinetobacter baumannii (A. baumannii) ATCC 17978; S. aureus ATCC 9144; Enterococcus faecalis (E. faecalis) NCTC 775; and Enterococcus faecium (E. faecium) NCTC 12204. […] However, it should be noted that the SSA stock solution was prepared in a H2O 5% EtOH solution, to ensure that the SSA aggregates formed were in line with those characterised within the scope of the SSA self-association studies.
(§2) Section 3: Biological methods
(§3) These methods were taken directly from UK Health and Security Office (UKHSA) standard […]
(§4) Preparation of Luria Broth media (LB): Yeast extract (5.0 g), tryptone (10.0 g) and sodium chloride (10.0 g) were dissolved in dH₂O (1.0 L) then divided into bottles and autoclaved.
(§5) Preparation of Luria Broth (LB) agar plates: Agar (6.0 g) was added to LB (400 mL) and autoclaved. Once cool, the LB agar was poured into sterile petri dishes under sterile conditions and allowed to set. LB plates were stored at 4 °C until use.
(§6) Preparation of bacterial plates: Sterile LB agar plates were streaked using streaked using the desired bacteria i) Pseudomonas aeruginosa (P.aeruginosa) PAO1, ii) Klebsiella pneumoniae (K. pneumoniae) M6 iii) E. coli NCTC 12923 and iv) Acinetobacter baumannii (A. baumannii) ATCC 17978 and Gram-positive i) Staphylococcus aureus (S. aureus) ATCC 9144 ii) Enterococcus faecalis (E. faecalis) NCTC 775 and iii) Enterococcus faecium (E. faecium ) NCTC 12204, then incubated at 37 °C overnight.
(§7) Preparation of Inoculum: An initial culture was made up by inoculating LB media (5 mL) with a single colony of bacteria under sterile conditions and incubated at 37 °C with shaking overnight. The following day, overnight bacterial cultures were subcultured into fresh LB medium to a starting OD600 of 0.01.
(§8) Preparation of 96 well microplate for MIC50: The 1:100 cell suspension (150 µL) was dispensed into individual wells under sterile conditions. SSAs (30 µL) were added to the wells to equal a total volume of 180 µL in the wells. Six repeats of each concentration for each SSA were created each plate. The plates were sealed using parafilm, then incubated at 37 °C in a microplate reader for 20 hours. OD600 endpoint data was used to generate growth curves. […]

[2] = system: E. coli NCTC 12923; test: inhibition of bacterial growth, OD600 after 20 h; format: cell-based, Escherichia coli; conditions: SSA 5.0 mM, 2.5% ethanol, negative = enhanced growth
Procedure: as §1, §2, §3, §4, §5, §6, §7, §8

[3] = dynamic light scattering (DLS) of SSA aggregates; format: physicochemical; conditions: 5.6 mM, H2O 5.0% EtOH, 298 K
Procedure: Dynamic light scattering (DLS) and zeta potential measurements in H2O 5.0% EtOH were used to determine the hydrodynamic diameter (dH) and stability of the higher-order SSA aggregates detected by (Q) ^1H NMR spectroscopy at 5.6 mM, Table 1. […] However, we are unable to confidently report a dH for 1 due to the instability of this system, which is supported by a zeta potential value of −26 mV, obtained for this SSA under the same experimental conditions. […] Due to the instability of these systems in the absence of solvent, attempts to further characterise these systems through SEM or AFM are not possible.[48]

[4] = system: A. baumannii ATCC 17978; test: inhibition of bacterial growth, OD600 after 20 h; format: cell-based, Acinetobacter baumannii; conditions: SSA 5.0 mM, 2.5% ethanol, negative = enhanced growth
Procedure: as §1, §2, §3, §4, §5, §6, §7, §8

[5] = quantitative (Q) 1H NMR spectroscopy, proportion of SSA becoming NMR silent (higher-order aggregates); format: physicochemical
Procedure: To confirm the presence of higher order self-associative structures quantitative (Q) ^1H NMR spectroscopy studies were undertaken at 5.6 mM in D2O 5% EtOH. Here the ^1H NMR resonances attributed to the EtOH are used as an internal standard.
Table S1 – Overview of results of the quantitative (Q) 1H NMR studies for 1, 3, 5, 7 and 9
5.0 % EtOH . Values given in % represent the observed proportion of the SSA that has become
Table S2 – Overview of results of the quantitative (Q) 1H NMR studies for 2, 4, 6, 8 and 10
5.0 % EtOH. Values given in % represent the observed proportion of anion and cation that has

[6] = system: E. faecium NCTC 12204; test: inhibition of bacterial growth, OD600 after 20 h; format: cell-based, Enterococcus faecium; conditions: SSA 5.0 mM, 2.5% ethanol, negative = enhanced growth
Procedure: as §1, §2, §3, §4, §5, §6, §7, §8

[7] = system: P. aeruginosa PAO1; test: inhibition of bacterial growth, OD600 after 20 h; format: cell-based, Pseudomonas aeruginosa; conditions: SSA 5.0 mM, 2.5% ethanol, negative = enhanced growth
Procedure: as §1, §2, §3, §4, §5, §6, §7, §8

[8] = tensiometry: critical aggregate concentration (CAC) and surface tension; format: physicochemical; conditions: for Surface tension at CAC: H2O/5.0 % EtOH
Procedure: As the (Q) ^1H NMR spectroscopy experiments conducted at 5.6 mM in a D2O 5.0% EtOH solution confirmed the presence of higher-order self-associated structures with solid-like properties, concentration dependent surface tension measurements, obtained through tensiometry, were used to calculate critical aggregate concentration (CAC). Here the CAC is defined as the point at which an increase in SSA concentration no longer decreases surface tension but instead results in the formation of higher-order self-associated structures.

[9] = system: E. faecalis NCTC 775; test: inhibition of bacterial growth, OD600 after 20 h; format: cell-based, Enterococcus faecalis; conditions: SSA 5.0 mM, 2.5% ethanol, negative = enhanced growth
Procedure: as §1, §2, §3, §4, §5, §6, §7, §8

[10] = system: S. aureus ATCC 9144; test: inhibition of bacterial growth, OD600 after 20 h; format: cell-based, Staphylococcus aureus; conditions: SSA 5.0 mM, 2.5% ethanol, negative = enhanced growth
Procedure: as §1, §2, §3, §4, §5, §6, §7, §8

[11] = system: all Gram-positive bacteria tested; test: inhibition of bacterial growth, span over the Gram-positive panel; format: cell-based, S. aureus, E. faecalis, E. faecium; conditions: SSA 5.0 mM, 20 hours; read-out: inhibition against all Gram-positive bacteria tested (span)
Procedure: as §1, §2, §3, §4
Preparation of Luria Broth (LB) agar plates: Agar (6.0 g) was added to LB (400 mL) and autoclaved. […]
Preparation of 96 well microplate for MIC50: The 1:100 cell suspension (150 µL) was dispensed into individual wells under sterile conditions. […] The plates were sealed using parafilm, then incubated at 37 °C in a microplate reader for 20 hours. […]

[12] = kinetic solubility determination in PBS pH 7.4; conditions: PBS, pH 7.4, aqueous buffer, kinetic from dmso stock, Solubility in PBS pH 7.4, kinetic; upper limit set at 300 µM
[13] = 5.6 mM, D2O 5.0% EtOH, 298 K, listed as 4
[14] = H2O 5.0% EtOH, 298 K, listed as 4

DLS Peak 2 maxima ([3]; listed as 5): 1328 nm | Polydispersity index (%) ([3]; listed as 5): 22.7 (± 1.5) % | dH (DLS intensity distribution peak 1 maxima) ([3]; listed as 5): 153 nm | (Q) 1H NMR spectroscopy, proportion NMR silent, acid or anion ([5]; 5.6 mM, D2O 5.0% EtOH, 298 K, listed as 5): 56% | (Q) 1H NMR, proportion NMR silent, SSA acid or anion ([5]; ~112 mM, DMSO-d6 1.0% DCM): 0% | ST at CAC ([8]; H2O 5.0% EtOH, 298 K): 58 mN m^−1 | CAC (footnote in place of a value) ([8]; H2O 5.0% EtOH, 298 K, listed as 5): ^b (CAC above the limit of solubility) | Surface tension at CAC ([8]; listed as 5): 58.22 mN/m
SMILES: COc1ccc(NC(=O)N[C@@H](CCC(=O)O)C(=O)O)cc1 [SSA 5]
inhibition at 5000 µM ([1]; Klebsiella pneumoniae, M6, 20 h, read-out: Percentage inhibition of bacterial growth, M6 (K. pneumoniae)): 12.8% | Percentage inhibition of bacterial growth, M6 (K. pneumoniae) ([1]; listed as 5): 13% | Percentage inhibition of bacterial growth, NCTC 12923 (E. coli) ([2]; listed as 5): 70.96% and 71% | Percentage inhibition of bacterial growth, ATCC 17978 (A. baumannii) ([4]; listed as 5): 18.61% and 19% | inhibition at 5000 µM ([6]; Enterococcus faecium, NCTC12204, 20 h, read-out: Percentage inhibition of bacterial growth, NCTC 12204 (E. faecium)): 5.8% | Percentage inhibition of bacterial growth, NCTC 12204 (E. faecium) ([6]; listed as 5): 6% | Percentage inhibition of bacterial growth, PAO1 (P. aeruginosa) ([7]; listed as 5): 0% | inhibition at 5000 µM ([9]; Enterococcus faecalis, NCTC775, 20 h, read-out: Percentage inhibition of bacterial growth, NCTC 775 (E. faecalis)): 13% | Percentage inhibition of bacterial growth, NCTC 775 (E. faecalis) ([9]; listed as 5): 13% | Percentage inhibition of bacterial growth, ATCC 9144 (S. aureus) ([10]; listed as 5): 12.67% and 13%

DLS Peak 2 maxima ([3]; listed as 4): 5118 nm | Polydispersity index (%) ([3]; listed as 4): 27.4 (± 0.8) % | dH (DLS intensity distribution peak 1 maxima) ([3]; listed as 4): 255 nm | (Q) 1H NMR spectroscopy, proportion NMR silent, acid or anion [5, 13]: 41% | (Q) 1H NMR spectroscopy, proportion NMR silent, cation [5, 13]: 43.2% and 43% | (Q) 1H NMR, proportion NMR silent, SSA acid or anion ([5]; ~112 mM, DMSO-d6 1.0% DCM): 0% | (Q) 1H NMR, proportion NMR silent, cation ([5]; ~112 mM, DMSO-d6 1.0% DCM): 0% | CAC [8, 14]: 22.26 mM and 22 mM | ST at CAC [8, 14]: 38 mN m^−1 | Surface tension at CAC ([8]; listed as 4): 38.35 mN/m
SMILES: O=C(O)CC[C@@H](NC(=O)Nc1ccc(C(F)(F)F)cc1)C(=O)O [SSA 4]
Percentage inhibition of bacterial growth, M6 (K. pneumoniae) ([1]; listed as 4): 19.93% and 20% | Percentage inhibition of bacterial growth, NCTC 12923 (E. coli) ([2]; listed as 4): 39.02% and 39% | Percentage inhibition of bacterial growth, ATCC 17978 (A. baumannii) ([4]; listed as 4): -20.93% and −21% | Percentage inhibition of bacterial growth, NCTC 12204 (E. faecium) ([6]; listed as 4): 99.74% and 100% | Percentage inhibition of bacterial growth, PAO1 (P. aeruginosa) ([7]; listed as 4): 10.30% and 10% | Percentage inhibition of bacterial growth, NCTC 775 (E. faecalis) ([9]; listed as 4): 98.82% and 99% | Percentage inhibition of bacterial growth, ATCC 9144 (S. aureus) ([10]; listed as 4): 98.85% and 99% | inhibition at 5000 µM [11]: 99 to 100%

solubility [12]: 281 µM (≈ 83.2 µg/mL)
SMILES: O=C(O)Cc1ccccc1Nc1c(Cl)cccc1Cl [Diclofenac, reference compound]
